According to ChEMBL document CHEMBL5465560, “Selectivity Literature for EUbOPEN Chemogenomic Library” (2024):

Assays:
[1] = biological target: T1, Cytoplasmic tyrosine-protein kinase BMX (Homo sapiens) (UniProt P51813); test: Selectivity interaction (Kinase screening (Nanosyn)) EUB0000604a BMX
T1 sequence (whole entry): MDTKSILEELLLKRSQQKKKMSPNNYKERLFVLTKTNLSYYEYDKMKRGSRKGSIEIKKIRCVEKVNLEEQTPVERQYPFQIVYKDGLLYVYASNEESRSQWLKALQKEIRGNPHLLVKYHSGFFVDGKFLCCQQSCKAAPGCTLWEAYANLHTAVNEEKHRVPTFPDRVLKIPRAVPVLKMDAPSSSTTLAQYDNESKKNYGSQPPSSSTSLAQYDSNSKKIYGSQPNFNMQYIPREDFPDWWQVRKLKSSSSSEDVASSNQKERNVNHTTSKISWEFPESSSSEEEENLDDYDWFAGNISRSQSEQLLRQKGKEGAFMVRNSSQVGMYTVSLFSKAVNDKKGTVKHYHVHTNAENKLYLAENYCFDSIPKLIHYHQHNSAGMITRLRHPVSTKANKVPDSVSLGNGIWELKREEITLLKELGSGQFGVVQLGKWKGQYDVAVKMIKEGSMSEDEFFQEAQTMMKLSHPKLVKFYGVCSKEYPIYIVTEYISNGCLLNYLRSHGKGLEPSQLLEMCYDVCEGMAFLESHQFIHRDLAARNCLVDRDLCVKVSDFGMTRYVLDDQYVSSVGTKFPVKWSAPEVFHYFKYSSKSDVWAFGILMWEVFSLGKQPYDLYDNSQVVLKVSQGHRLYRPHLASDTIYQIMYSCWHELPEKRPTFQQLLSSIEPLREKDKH

[2] = biological target: Citron Rho-interacting kinase (Homo sapiens) (UniProt O14578); test: Selectivity interaction (KinomeScan (DiscoverX)) EUB0001049a CIT; settings: at 1 µM
[3] = biological target: Serine/threonine-protein kinase N2 (Homo sapiens, UniProt Q16513); test: Selectivity interaction (KinomeScan (DiscoverX)) EUB0001049a PKN2; settings: at 1 µM
[4] = biological target: DNA-dependent protein kinase catalytic subunit (Homo sapiens) (UniProt P78527); test: Selectivity interaction (ActivX KiNativ screen (kinase selectivity in THP-1 cell lysates)) EUB0000639a PRKDC; assay type: subcellular; settings: lysate, at 0.04 µM
[5] = biological target: T2, Serine/threonine-protein kinase ULK1 (Homo sapiens) (UniProt O75385); test: Selectivity interaction (ActivX KiNativ screen (kinase selectivity in THP-1 cell lysates)) EUB0000639a ULK1; assay type: subcellular; settings: lysate, at 0.01 µM
T2 sequence (whole entry): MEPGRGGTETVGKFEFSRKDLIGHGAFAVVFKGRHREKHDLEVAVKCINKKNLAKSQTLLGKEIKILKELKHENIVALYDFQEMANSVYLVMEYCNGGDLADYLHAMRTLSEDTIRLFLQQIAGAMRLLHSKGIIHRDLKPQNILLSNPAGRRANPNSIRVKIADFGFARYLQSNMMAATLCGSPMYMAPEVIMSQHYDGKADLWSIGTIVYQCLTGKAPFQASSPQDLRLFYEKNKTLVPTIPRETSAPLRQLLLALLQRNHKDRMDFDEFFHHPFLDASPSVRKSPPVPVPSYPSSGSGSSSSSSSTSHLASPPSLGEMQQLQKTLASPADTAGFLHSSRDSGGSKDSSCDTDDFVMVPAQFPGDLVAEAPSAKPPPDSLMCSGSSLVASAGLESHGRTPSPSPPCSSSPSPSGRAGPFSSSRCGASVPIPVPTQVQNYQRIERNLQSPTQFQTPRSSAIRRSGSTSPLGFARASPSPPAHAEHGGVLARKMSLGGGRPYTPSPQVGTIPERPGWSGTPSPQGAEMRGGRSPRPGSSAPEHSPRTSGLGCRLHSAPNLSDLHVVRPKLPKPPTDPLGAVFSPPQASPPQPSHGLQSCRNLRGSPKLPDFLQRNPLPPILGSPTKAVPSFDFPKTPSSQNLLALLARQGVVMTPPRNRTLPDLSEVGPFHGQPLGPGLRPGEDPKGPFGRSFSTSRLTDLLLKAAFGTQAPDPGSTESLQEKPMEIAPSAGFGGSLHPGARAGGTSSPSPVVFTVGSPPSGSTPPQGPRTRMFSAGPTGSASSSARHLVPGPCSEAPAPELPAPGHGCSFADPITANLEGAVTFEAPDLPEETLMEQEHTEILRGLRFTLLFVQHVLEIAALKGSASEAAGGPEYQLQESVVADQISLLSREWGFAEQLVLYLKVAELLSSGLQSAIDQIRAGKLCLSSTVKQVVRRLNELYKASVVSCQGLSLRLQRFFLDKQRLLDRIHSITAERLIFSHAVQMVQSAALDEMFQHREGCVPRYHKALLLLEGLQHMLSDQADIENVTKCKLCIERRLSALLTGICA

[6] = biological target: Ribosomal protein S6 kinase beta-1 (Homo sapiens, UniProt P23443); test: Selectivity interaction (Kinase panel (literature)) EUB0001199aCl RPS6KB1; settings: at 1 µM
[7] = biological target: Sphingosine kinase 1 (Homo sapiens) (UniProt Q9NYA1); test: Selectivity interaction (Adapta Assay) EUB0001632a SPHK1; settings: at 10 µM
[8] = biological target: Fibroblast growth factor receptor 4 (Homo sapiens, UniProt P22455); settings: at 10 µM
[9] = biological target: T3, Mitogen-activated protein kinase 12 (Homo sapiens) (UniProt P53778); test: Selectivity interaction (KinomeScan (DiscoverX)) EUB0001079a MAPK12; settings: at 1 µM
T3 sequence (whole entry): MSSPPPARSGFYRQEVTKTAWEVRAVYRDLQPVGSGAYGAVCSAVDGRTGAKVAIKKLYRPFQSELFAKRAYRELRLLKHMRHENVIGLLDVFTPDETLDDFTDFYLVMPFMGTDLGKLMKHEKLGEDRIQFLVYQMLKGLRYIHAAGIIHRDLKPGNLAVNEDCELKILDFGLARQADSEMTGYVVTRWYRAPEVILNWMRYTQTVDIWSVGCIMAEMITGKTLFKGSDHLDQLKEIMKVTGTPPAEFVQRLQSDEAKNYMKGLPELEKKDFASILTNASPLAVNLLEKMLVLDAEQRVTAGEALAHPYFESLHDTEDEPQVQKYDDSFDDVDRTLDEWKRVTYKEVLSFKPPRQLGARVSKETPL

[10] = biological target: Vascular endothelial growth factor receptor 2 (Homo sapiens, UniProt P35968); test: Selectivity interaction (KinomeScan (DiscoverX)) EUB0000092b KDR; settings: at 10 µM
[11] = biological target: Activin receptor type-2A (Homo sapiens) (UniProt P27037); test: Selectivity interaction (KinomeScan (DiscoverX)) EUB0000655a ACVR2A; settings: at 10 µM
[12] = biological target: Interleukin-1 receptor-associated kinase 1 (Homo sapiens) (UniProt P51617); test: Selectivity interaction (KinomeScan (DiscoverX)) EUB0000607a IRAK1; settings: at 10 µM
Interleukin-1 receptor-associated kinase 1 (Homo sapiens), sequence (P51617 whole entry, looked up): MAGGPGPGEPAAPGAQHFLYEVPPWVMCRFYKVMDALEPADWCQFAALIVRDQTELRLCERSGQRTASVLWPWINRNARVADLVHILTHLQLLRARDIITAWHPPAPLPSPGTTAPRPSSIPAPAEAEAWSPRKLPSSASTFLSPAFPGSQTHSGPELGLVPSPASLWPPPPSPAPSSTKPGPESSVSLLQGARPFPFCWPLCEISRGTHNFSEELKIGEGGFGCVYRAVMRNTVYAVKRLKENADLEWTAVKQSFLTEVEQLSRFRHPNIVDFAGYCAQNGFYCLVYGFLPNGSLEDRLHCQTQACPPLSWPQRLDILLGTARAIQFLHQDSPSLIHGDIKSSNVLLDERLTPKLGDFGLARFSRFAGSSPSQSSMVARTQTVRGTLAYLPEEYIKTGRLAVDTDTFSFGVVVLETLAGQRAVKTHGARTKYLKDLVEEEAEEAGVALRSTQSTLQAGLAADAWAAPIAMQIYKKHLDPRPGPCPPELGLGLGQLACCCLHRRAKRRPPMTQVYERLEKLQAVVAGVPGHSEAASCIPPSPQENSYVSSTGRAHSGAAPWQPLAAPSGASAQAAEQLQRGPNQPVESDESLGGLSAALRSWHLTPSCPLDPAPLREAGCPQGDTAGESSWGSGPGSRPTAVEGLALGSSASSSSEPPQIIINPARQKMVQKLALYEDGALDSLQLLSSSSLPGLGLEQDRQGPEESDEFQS

Activin receptor type-2A (Homo sapiens), sequence (P27037 whole entry): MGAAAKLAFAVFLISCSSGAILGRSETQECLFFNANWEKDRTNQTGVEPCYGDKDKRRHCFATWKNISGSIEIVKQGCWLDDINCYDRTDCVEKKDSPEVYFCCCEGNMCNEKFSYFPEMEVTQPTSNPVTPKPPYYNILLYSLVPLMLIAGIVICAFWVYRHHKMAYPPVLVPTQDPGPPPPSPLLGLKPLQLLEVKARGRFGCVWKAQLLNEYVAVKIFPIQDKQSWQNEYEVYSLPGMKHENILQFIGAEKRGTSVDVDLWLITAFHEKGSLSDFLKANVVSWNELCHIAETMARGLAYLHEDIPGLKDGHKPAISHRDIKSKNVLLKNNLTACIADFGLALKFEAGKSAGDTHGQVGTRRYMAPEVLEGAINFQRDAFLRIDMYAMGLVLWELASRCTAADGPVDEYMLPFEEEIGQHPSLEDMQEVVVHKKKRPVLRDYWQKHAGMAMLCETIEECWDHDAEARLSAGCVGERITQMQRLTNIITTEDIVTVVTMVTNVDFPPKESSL
Sphingosine kinase 1 (Homo sapiens), sequence (Q9NYA1 whole entry): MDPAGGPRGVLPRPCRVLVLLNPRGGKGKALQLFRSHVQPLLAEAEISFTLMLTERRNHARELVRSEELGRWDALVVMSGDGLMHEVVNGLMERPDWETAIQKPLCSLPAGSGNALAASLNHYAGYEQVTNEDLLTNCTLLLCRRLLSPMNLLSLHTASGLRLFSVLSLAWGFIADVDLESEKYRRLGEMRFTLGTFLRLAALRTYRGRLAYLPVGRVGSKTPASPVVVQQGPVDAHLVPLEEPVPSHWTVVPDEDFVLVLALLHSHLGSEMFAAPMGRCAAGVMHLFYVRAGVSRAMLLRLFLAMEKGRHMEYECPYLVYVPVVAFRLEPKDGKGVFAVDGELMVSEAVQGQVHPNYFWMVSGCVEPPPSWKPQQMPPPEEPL
Serine/threonine-protein kinase N2, sequence (Q16513 whole entry, looked up): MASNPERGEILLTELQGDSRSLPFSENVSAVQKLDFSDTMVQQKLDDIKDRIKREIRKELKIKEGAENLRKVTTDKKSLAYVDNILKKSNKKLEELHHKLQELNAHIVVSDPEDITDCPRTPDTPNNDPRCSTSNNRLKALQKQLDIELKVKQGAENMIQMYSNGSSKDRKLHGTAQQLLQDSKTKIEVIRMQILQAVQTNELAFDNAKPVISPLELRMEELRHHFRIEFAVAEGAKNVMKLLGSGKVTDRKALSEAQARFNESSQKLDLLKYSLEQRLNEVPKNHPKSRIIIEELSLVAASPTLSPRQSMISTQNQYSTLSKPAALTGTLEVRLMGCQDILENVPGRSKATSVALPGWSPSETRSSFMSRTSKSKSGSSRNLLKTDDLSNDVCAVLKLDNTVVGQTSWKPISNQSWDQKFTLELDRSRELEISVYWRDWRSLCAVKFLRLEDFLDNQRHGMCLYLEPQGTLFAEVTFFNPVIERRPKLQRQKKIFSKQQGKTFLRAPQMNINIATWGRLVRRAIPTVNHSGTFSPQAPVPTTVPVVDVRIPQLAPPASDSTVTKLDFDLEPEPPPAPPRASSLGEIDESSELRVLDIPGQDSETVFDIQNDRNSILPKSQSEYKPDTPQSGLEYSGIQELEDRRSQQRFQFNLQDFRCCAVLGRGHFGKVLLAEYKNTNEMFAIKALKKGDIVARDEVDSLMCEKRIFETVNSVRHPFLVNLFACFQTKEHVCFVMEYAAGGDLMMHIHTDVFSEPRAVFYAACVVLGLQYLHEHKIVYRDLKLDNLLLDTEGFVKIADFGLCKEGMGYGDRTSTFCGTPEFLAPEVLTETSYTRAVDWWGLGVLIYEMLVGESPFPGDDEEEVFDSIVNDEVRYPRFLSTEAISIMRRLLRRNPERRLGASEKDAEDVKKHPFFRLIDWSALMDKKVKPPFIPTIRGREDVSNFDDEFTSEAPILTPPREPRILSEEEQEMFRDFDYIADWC
Vascular endothelial growth factor receptor 2, sequence (P35968 whole entry): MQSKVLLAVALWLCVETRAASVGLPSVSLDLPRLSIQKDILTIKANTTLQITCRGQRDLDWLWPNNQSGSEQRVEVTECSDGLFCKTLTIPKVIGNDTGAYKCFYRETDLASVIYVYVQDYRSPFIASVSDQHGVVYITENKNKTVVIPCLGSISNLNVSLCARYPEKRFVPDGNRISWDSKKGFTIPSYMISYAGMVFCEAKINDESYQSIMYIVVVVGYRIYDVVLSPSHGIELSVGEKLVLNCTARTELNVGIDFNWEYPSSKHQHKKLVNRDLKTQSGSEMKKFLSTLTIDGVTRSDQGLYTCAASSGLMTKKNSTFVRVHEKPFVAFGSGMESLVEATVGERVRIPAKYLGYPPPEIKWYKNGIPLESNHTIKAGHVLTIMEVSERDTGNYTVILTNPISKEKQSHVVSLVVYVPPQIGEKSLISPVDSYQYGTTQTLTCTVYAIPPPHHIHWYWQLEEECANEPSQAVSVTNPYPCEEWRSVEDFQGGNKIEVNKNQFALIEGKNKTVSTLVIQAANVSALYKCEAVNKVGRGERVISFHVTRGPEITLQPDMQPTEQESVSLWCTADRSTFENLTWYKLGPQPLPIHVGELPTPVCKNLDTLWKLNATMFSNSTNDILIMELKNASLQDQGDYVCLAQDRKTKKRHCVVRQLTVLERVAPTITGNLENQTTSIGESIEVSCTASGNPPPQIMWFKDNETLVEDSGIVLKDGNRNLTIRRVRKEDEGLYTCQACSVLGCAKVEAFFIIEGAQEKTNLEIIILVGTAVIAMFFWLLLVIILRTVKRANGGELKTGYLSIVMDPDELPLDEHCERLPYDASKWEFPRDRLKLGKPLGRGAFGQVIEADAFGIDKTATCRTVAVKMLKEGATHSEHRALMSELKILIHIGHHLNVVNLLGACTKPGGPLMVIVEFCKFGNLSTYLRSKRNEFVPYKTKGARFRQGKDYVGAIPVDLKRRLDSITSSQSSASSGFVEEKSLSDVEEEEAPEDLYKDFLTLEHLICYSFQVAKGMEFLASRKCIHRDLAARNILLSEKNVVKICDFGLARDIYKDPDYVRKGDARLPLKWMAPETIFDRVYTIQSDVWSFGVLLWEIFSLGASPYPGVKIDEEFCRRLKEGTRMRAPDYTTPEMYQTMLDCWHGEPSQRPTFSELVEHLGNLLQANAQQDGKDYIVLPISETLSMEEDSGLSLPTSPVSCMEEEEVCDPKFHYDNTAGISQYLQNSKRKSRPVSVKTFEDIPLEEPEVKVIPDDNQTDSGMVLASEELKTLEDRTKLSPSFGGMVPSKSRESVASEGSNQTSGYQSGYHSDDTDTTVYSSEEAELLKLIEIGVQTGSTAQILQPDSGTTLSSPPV
Ribosomal protein S6 kinase beta-1, sequence (P23443 whole entry, looked up): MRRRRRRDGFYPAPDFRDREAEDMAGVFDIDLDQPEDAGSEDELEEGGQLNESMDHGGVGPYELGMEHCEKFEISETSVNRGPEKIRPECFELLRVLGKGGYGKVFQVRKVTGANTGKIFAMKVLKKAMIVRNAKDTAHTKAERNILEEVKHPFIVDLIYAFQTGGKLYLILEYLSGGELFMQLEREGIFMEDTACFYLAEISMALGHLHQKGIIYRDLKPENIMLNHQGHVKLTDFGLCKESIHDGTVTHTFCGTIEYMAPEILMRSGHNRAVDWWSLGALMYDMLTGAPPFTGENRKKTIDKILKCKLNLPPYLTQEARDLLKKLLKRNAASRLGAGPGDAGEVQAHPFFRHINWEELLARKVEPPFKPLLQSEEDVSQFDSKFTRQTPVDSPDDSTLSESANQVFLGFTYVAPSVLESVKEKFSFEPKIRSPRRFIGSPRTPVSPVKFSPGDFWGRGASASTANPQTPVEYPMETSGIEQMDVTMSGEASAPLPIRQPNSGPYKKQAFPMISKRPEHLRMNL

Q: With `Cc1cnc(Nc2ccc(F)cc2Cl)nc1-c1c[nH]c(C(=O)N[C@H](CO)c2cccc(Cl)c2)c1` as the molecule, how does the % of inhibition [1] read?
A: Its % of inhibition is 3%.

Q: What does the source list for `COc1cc(Nc2nc(C)cc(-c3cnn4nc(OC)ccc34)n2)cc(C(F)(F)F)c1`?
A: % of control [2]: 100%; % of control [3]: 90%

Q: What does the source list for `CC[C@@H]1[C@H](F)C(=O)N[C@@H]1COc1nccc2cc(C(N)=O)c(OC)cc12` [ZIMLOVISERTIB]?
A: % of inhibition [4]: -0.6%; % of inhibition [5]: -5.9%

Q: How did the % of inhibition [6] turn out when `CN1Cc2nccc(-c3cn(C)nc3-c3ccc(F)cc3)c2C1=O` was run?
A: Its % of inhibition is -3%.

Q: How did the % of inhibition [7] turn out when `Cn1cc(-n2cnc3c(NCc4nc5cc(Cl)c(Cl)cc5[nH]4)nc(N4CCOCC4)nc32)cn1` was run?
A: The % of inhibition was 53.7%.

Q: `COCC(=O)NC/C=C/c1ccc2ncnc(Nc3ccc(Oc4ccc(C)nc4)c(C)c3)c2c1` [CP-724714] was tested. Which % of control [8] did it give?
A: The % of control was 100%.

Q: With `Nc1cnc(N2CCc3cc(S(=O)(=O)Nc4c(F)cc(Cl)cc4F)cc(N4CCCC4=O)c32)nc1` [TP-020n] as the molecule, how does the % of control [9] read?
A: Its % of control is 100%.

Q: `CCC(=O)N1CCN(c2ccc(-n3c(=O)ccc4cnc5ccc(-c6cnc7ccccc7c6)cc5c43)cc2C(F)(F)F)CC1` was tested. Which % of control [10] did it give?
A: Its % of control is 65%.

Q: `CN(C)CCOc1ccc(-c2nc(-c3ccncc3)c(-c3ccc4c(c3)CC/C4=N\O)[nH]2)cc1` was tested. Which % of control [11] did it give?
A: Its % of control is 100%.

Q: How did the % of control [12] turn out when `CNC(=O)Nc1ccc(-c2nc(N3CC4CCC(C3)O4)c3cnn(C4CCC5(CC4)OCCO5)c3n2)cc1` was run?
A: The % of control was 100%.
